Source: US6387905B2, “Compounds useful for inhibition of farnesyl protein transferase” (Schering Corporation, priority 1996, dated 2002)
Where “and” joins values, the source holds several entries; their conditions need not be identical. Equal entries are not always repeated. Where two headings read alike, the source gives them in different places. Blank lines part the entries; values can stand above or below the molecule they belong to.

Key:
[1] = biological target: farnesyl protein transferase (FPT), H-ras (Homo sapiens, UniProt P49354+P49356); experiment: FPT IC50 (H-ras), inhibition of farnesyl protein transferase, in vitro enzyme assay; format: biochemical
Description: (§1) FPT IC50 (inhibition of farnesyl protein transferase, in vitro enzyme assay) and COS Cell IC50 (Cell-Based Assay) were determined following the assay procedures described in WO 95/10516, published Apr. 20, 1995. GGPT IC50 (inhibition of geranylgeranyl protein transferase, in vitro enzyme assay), Cell Mat Assay, and anti-tumor activity (in vivo anti-tumor studies) could be determined by the assay procedures described in WO 95/10516. The disclosure of WO 95/10516 is incorporated herein by reference thereto.

COS Cell = COS Cell IC50 (Cell-Based Assay)
Description: as §1

Human tumor cells = experiment: Soft Agar Assay (anchorage-independent growth); format: cell-based; conditions: Homo sapiens
Description: Anchorage-independent growth is a characteristic of tumorgenic cell lines. Human tumor cells are suspended in growth medium containing 0.3% agarose and an indicated concentration of a farnesyl transferase inhibitor. The solution is overlayed onto growth medium solidified with 0.6% agarose containing the same concentration of farnesyl transferase inhibitor as the top layer. After the top layer is solidified, plates are incubated for 10-16 days at 37° C. under 5% CO2 to allow colony outgrowth. After incubation, the colonies are stained by overlaying the agar with a solution of MTT (3-[4,5-dimethyl-thiazol-2-yl]-2,5-diphenyltetrazolium bromide, Thiazolyl blue) (1 mg/mL in PBS). Colonies can be counted and the IC50's can be determined.

[2] = COS, read-out: Cos Cell IC50, Table 5
[3] = read-out: Cos Cell IC50, Table 5
[4] = COS, Table 5, read-out: Cos Cell IC50
[5] = Table 5, read-out: Soft Agar IC50
[6] = H-ras, read-out: FPT IC50 (H-ras)
[7] = Table 3, H-ras, read-out: FPT IC50 (nM) (H-ras)

SMILES: O=C(O)CC(=O)N1CCC(CC(=O)N2CCC([C@H]3c4ncc(Br)cc4CCc4cc(Cl)cc(Br)c43)CC2)CC1 [Example 14.0-B]
IC50 ([1]; Table 4, read-out: FPT IC50): 0.9 nM and 1.9 nM | IC50 (COS Cell; [2]): 250 nM | IC50 (COS Cell; [3]): 200 nM | IC50 (Human tumor cells; read-out: Soft Agar IC50, Table 5): > 500 nM

SMILES: O=C(CC1CCN(C(=O)Cn2cnc(-c3ccccc3)c2)CC1)N1CCC([C@H]2c3ncc(Br)cc3CCc3cc(Cl)cc(Br)c32)CC1 [Cmpd 20.0-B]
IC50 ([1]; Table 4, read-out: FPT IC50): 5.6 nM

SMILES: COC(=O)Cc1cn(CC(=O)N2CCC(CC(=O)N3CCC([C@H]4c5ncc(Br)cc5CCc5cc(Cl)cc(Br)c54)CC3)CC2)cn1 [Cmpd 56.0-B]
IC50 ([1]; Table 4, read-out: FPT IC50): 3.3 nM | IC50 (COS Cell; [4]): 50 nM | IC50 (Human tumor cells; [5]): > 500 nM

SMILES: O=C(CCN1CCCCC1)N1CCC(CC(=O)N2CCC([C@H]3c4ncc(Br)cc4CCc4cc(Cl)cc(Br)c43)CC2)CC1 [Cmpd 7.0-B]
IC50 ([1]; Table 4, read-out: FPT IC50): < 2.6 nM | IC50 (COS Cell; [4]): 43 nM

SMILES: O=C(O)CCCC(=O)N1CCC(CC(=O)N2CCC([C@H]3c4ncc(Br)cc4CCc4cc(Cl)cc(Br)c43)CC2)CC1 [Example 19.0-B]
IC50 ([1]; Table 4, read-out: FPT IC50): 1.1 nM | IC50 (COS Cell; [2]): 17.5 nM | IC50 (COS Cell; [3]): < 10 nM

SMILES: CCOC(=O)c1c(C)ncn1CC(=O)N1CCC(CC(=O)N2CCC([C@H]3c4ncc(Br)cc4CCc4cc(Cl)cc(Br)c43)CC2)CC1 [Cmpd 21.0-B]
IC50 ([1]; Table 4, read-out: FPT IC50): 5.7 nM | IC50 (Human tumor cells; [5]): > 500 nM

SMILES: CCOC(=O)c1c(C)ncn1CC(=O)N1CCC(CC(=O)N2CCC([C@H]3c4ncc(Br)cc4CCc4cc(Cl)cc(Br)c43)CC2)CC1 [Cmpd 53.0-B]
IC50 ([1]; Table 4, read-out: FPT IC50): 3.6 nM | IC50 (COS Cell; [4]): 50 nM

SMILES: O=C(CO)N1CCC(CC(=O)N2CCC([C@H]3c4ncc(Br)cc4CCc4cc(Cl)cc(Br)c43)CC2)CC1 [Cmpd 37.0-B]
IC50 ([1]; Table 4, read-out: FPT IC50): 2.6 nM | IC50 (Human tumor cells; [5]): 75 nM

SMILES: COC(NC(=O)CC(=O)N1CCC(CC(=O)N2CCC([C@H]3c4ncc(Br)cc4CCc4cc(Cl)cc(Br)c43)CC2)CC1)C(C)C (stereo partly shown) [Cmpd 51.0-B]
IC50 ([1]; Table 4, read-out: FPT IC50): 8.1 nM | IC50 (COS Cell; [4]): 280 nM

Continued, in another order:

IC50 ([1]; Table 4, read-out: FPT IC50): 7.2 nM | IC50 (Human tumor cells; [5]): 432 nM
SMILES: O=C(CC1CCN(C(=O)CC2CCCCO2)CC1)N1CCC([C@H]2c3ncc(Br)cc3CCc3cc(Cl)cc(Br)c32)CC1 (stereo partly shown) [Cmpd 114.3-B]
IC50 (COS Cell; [4]): 11 nM

IC50 ([1]; Table 4, read-out: FPT IC50): 3.5 nM
SMILES: NC(=O)CCCCC(=O)N1CCC(CC(=O)N2CCC([C@H]3c4ncc(Br)cc4CCc4cc(Cl)cc(Br)c43)CC2)CC1 [Cmpd 67.0-B]

IC50 ([1]; Table 4, read-out: FPT IC50): 6.7 nM
SMILES: CCOC(CC(=O)N1CCC(CC(=O)N2CCC([C@H]3c4ncc(Br)cc4CCc4cc(Cl)cc(Br)c43)CC2)CC1)OCC [Cmpd 76.0-B]

IC50 ([1]; Table 4, read-out: FPT IC50): 18 nM
SMILES: CC(C)(C)OC(=O)NCCC(=O)N1CCC(CC(=O)N2CCC([C@H]3c4ncc(Br)cc4CCc4cc(Cl)cc(Br)c43)CC2)CC1 [Example 86.0-B]

IC50 [1, 6]: 2.8 nM
SMILES: CC(C)=NOCCC(=O)N1CCC(CC(=O)N2CCC([C@H]3c4ncc(Br)cc4CCc4cc(Cl)cc(Br)c43)CC2)CC1 [Example 23.0-B]

IC50 (Human tumor cells; [5]): 130 nM
SMILES: CNC(=O)C(=O)N1CCC(CC(=O)N2CCC([C@H]3c4ncc(Br)cc4CCc4cc(Cl)cc(Br)c43)CC2)CC1 [Cmpd 64.0-B]
IC50 (COS Cell; [4]): 10 nM

IC50 [1, 7]: 2.7 nM
SMILES: O=C(CC1CCN(C(=O)CN2CCS(=O)(=O)CC2)CC1)N1CCC(C2c3ncc(Br)cc3CCc3cc(Cl)cc(Br)c32)CC1 (single isomer, unassigned; (+)) [Example 23]
IC50 (COS Cell; COS, Table 3, read-out: COS Cell IC50): 14 nM

IC50 [1, 6]: 4.4 nM
SMILES: O=C(CC1CCN(C(=O)CN2C(=O)CSC2=O)CC1)N1CCC([C@H]2c3ncc(Br)cc3CCc3cc(Cl)cc(Br)c32)CC1 [Example 79.0-B]

IC50 [1, 6]: 3.5 nM
SMILES: NC(=O)CCCCC(=O)N1CCC(CC(=O)N2CCC([C@H]3c4ncc(Br)cc4CCc4cc(Cl)cc(Br)c43)CC2)CC1 [Example 108.0-B]

IC50 ([1]; Table 4, read-out: FPT IC50): 3.8 nM
SMILES: NCCCC(=O)N1CCC(CC(=O)N2CCC([C@H]3c4ncc(Br)cc4CCc4cc(Cl)cc(Br)c43)CC2)CC1 [Cmpd 90.0-B]

IC50 [1, 7]: 31.7 nM
SMILES: CC(C)(C)OC(=O)N[C@@H](Cc1ccccc1)C(=O)N1CCC(CC(=O)N2CCC([C@H]3c4ncc(Br)cc4CCc4cc(Cl)cc(Br)c43)CC2)CC1 [Example 7]

IC50 ([1]; Table 4, read-out: FPT IC50): 16 nM
SMILES: O=C(NO)C(=O)N1CCC(CC(=O)N2CCC([C@H]3c4ncc(Br)cc4CCc4cc(Cl)cc(Br)c43)CC2)CC1 [Cmpd 58.0-B]
